Measured values taken from US20260365628A1, “SUBSTITUTED 3,4-DIHYDROQUINOLINONE INHIBITORS OF TSHR” (Septerna, Inc., priority 2022, published 2026).

The compounds below were run against T1, hTSHR (Homo sapiens, UniProt P16473) (assay: hTSHR TR-FRET cAMP Assay (inhibition of M22-stimulated cAMP production)). Conditions: Expi293F Inducible cells stably expressing hTSHR; cAMP HTRF; stimulated with EC80 of anti-TSHR antibody M22; 15 min compound preincubation, 30 min at 37° C.; read-out: Activity (IC50 bins).
T1 construct: expressed in transfected cells
Assay type: cell-based
Method in brief: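 Readout was a cAMP HTRF ratio of 655/620 nm after lysis, scaled between the EC80 M22 signal (0% inhibition) and no-agonist vehicle (100%). Frozen induced Expi293F-hTSHR cells saw test compounds (0.5% DMSO) for 15 min at 37 °C before 30 min of M22 stimulation at EC80.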

T1 sequence (P16473 21-764): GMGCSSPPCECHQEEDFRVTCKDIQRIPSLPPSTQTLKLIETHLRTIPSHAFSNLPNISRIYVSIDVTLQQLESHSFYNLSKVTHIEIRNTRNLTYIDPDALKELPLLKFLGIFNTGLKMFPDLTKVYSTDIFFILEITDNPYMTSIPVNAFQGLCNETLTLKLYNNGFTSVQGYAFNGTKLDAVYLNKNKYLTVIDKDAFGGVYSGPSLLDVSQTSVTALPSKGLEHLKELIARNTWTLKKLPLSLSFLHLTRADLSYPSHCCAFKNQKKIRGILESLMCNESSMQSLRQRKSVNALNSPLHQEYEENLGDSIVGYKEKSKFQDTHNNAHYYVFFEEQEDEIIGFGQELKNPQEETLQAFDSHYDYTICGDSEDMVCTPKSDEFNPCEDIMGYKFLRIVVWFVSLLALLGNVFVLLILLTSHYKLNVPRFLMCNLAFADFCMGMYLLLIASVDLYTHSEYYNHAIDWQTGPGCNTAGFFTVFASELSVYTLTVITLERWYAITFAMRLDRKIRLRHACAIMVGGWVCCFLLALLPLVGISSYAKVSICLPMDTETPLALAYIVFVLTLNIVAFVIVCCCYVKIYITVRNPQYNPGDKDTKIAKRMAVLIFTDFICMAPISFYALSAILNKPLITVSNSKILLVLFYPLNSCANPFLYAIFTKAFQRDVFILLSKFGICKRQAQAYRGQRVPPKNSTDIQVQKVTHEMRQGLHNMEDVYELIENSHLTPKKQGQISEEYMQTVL

Row | SMILES | IC50
1 | CC1(C)CCN(C(=O)Nc2ccc3c(c2)ncc(=O)n3Cc2ccccc2)C1 [Example 194, N-(1-benzyl-2-oxo-1,2-dihydroquinoxalin-6-yl)-3,3-dimethylpyrrolidine-1-carboxamide] | > 1 µM
2 | CC(C)(CF)NC(=O)Nc1ccc2c(c1)ncc(=O)n2Cc1ccccc1 [Example 195, 1-(1-benzyl-2-oxo-1,2-dihydroquinoxalin-6-yl)-3-(1-fluoro-2-methylpropan-2-yl)urea] | > 1 µM
3 | O=C(Nc1ccc2c(c1)ncc(=O)n2Cc1ccccc1)NC1CCCC1 [Example 196, 1-(1-benzyl-2-oxo-1,2-dihydroquinoxalin-6-yl)-3-cyclopentylurea] | > 1 µM
4 | O=C(Nc1ccc2c(c1)ncc(=O)n2Cc1ccccc1)C1CCCC1 [Example 197, N-(1-benzyl-2-oxo-1,2 dihydroquinoxalin-6-yl)cyclopentanecar-boxamide] | > 1 µM
5 | CC(C)(NC(=O)Nc1ccc2c(c1)ncc(=O)n2Cc1ccccc1)C(F)(F)F [Example 198, 1-(1-benzyl-2-oxo-1,2-dihydroquinoxalin-6-yl)-3-(1,1,1-trifluoro-2-methylpropan-2-yl)urea] | 0.1 to 1 µM
6 | CC(C)(NC(=O)Nc1ccc2c(c1)ncc(=O)n2Cc1ccccc1)C(F)F [Example 199, 1-(1-benzyl-2-oxo-1,2-dihydroquinoxalin-6-yl)-3-(1,1-difluoro-2-methylpropan-2-yl)urea] | 0.1 to 1 µM
7 | C[C@@H](c1cccc(OC(F)(F)F)c1)n1c(=O)cnc2cc(NC(=O)CCc3cccc(C(F)(F)F)c3)ccc21 [Example 202, (S)-N-(2-oxo-1-(1-(3-(trifluoromethoxy)phenyl)ethyl)-1,2-dihydroquinoxalin-6-yl)-3-(3-(trifluoromethyl)phenyl) propanamide] | < 0.1 µM
8 | CC(C)CCNC(=O)Nc1ccc2c(c1)ncc(=O)n2[C@@H](C)c1cccc(OC(F)(F)F)c1 [Example 207, (S)-1-isopentyl-3-(2-oxo-1-(1-(3-(trifluoromethoxy)phenyl)ethyl)-1,2-dihydroquinoxalin-6-yl)urea] | 0.1 to 1 µM

More lines, now with the values ahead:

Row | IC50 | SMILES
9 | < 0.1 µM | C[C@@H](c1cccc(OC(F)(F)F)c1)n1c(=O)cnc2cc(NC(=O)NC3(C)CCC3)ccc21 [Example 200, (S)-1-(1-methylcyclobutyl)-3-(2-oxo-1-(1-(3-(trifluoromethoxy)phenyl)ethyl)-1,2-dihydroquinoxalin-6-yl)urea]
10 | 0.1 to 1 µM | C[C@@H](c1cccc(OC(F)(F)F)c1)n1c(=O)cnc2cc(NC(=O)NCC(C)(C)C)ccc21 [Example 201, (S)-1-neopentyl-3-(2-oxo-1-(1-(3-(trifluoromethoxy)phenyl)ethyl)-1,2-dihydroquinoxalin-6-yl)urea]
11 | 0.1 to 1 µM | C[C@@H](c1cccc(OC(F)(F)F)c1)n1c(=O)cnc2cc(NC(=O)NC3(C)CCCC3)ccc21 [Example 203, (S)-1-(1-methylcyclopentyl)-3-(2-oxo-1-(1-(3-(trifluoromethoxy)phenyl)ethyl)-1,2-dihydroquinoxalin-6-yl)urea]
12 | 0.1 to 1 µM | C[C@@H](c1cccc(OC(F)(F)F)c1)n1c(=O)cnc2cc(NC(=O)NC3CC(F)(F)C3)ccc21 [Example 204, (S)-1-(3,3-difluorocyclobutyl)-3-(2-oxo-1-(1-(3-(trifluoromethoxy)phenyl)ethyl)-1,2-dihydroquinoxalin-6-yl)urea]
13 | 0.1 to 1 µM | C[C@@H](c1cccc(OC(F)(F)F)c1)n1c(=O)cnc2cc(NC(=O)NC3CCC3)ccc21 [Example 205, (S)-1-cyclobutyl-3-(2-oxo-1-(1-(3-(trifluoromethoxy)phenyl)ethyl)-1,2-dihydroquinoxalin-6-yl)urea]
14 | 0.1 to 1 µM | C[C@@H](c1cccc(OC(F)(F)F)c1)n1c(=O)cnc2cc(NC(=O)NC34CC(C3)C4)ccc21 [Example 206, (S)-1-(bicycl[1.1.1]pentan-1-yl)-3-(2-oxo-1-(1-(3-(trifluoromethoxy)phenyl)ethyl)-1,2-dihydroquinoxalin-6-yl)urea]
